“Also recorded” adds a separate entry of the source.

The values that follow come from patent US20150196580A1, “USE OF DEFIBROTIDE FOR THE INHIBITION OF HEPARANASE” (GENTIUM SPA, priority 2006, published 2015).

Experiment [1] relates to Heparanase gene expression. Briefly: Real-Time PCR of Heparanase gene expression in U266 myeloma cells. Type of experiment: cell-based. Conditions: DF 150 and 400 μg/ml, 24 h, vs saline control, triplicate. The protocol: (§1) To evaluate the effect of DF either on Heparanase expression and its activity, the U266 and HMEC cells were incubated for 24 h with DF at different concentrations or saline (control cells). After incubation with Defibrotide, the cells were washed with phosphate-buffered saline (PBS) pH 7.4, and different U266 and HMEC samples were prepared for different experiments.
(§2) RNA has been isolated from U266 and HMEC cells (1.5×10^5 Cells/ml) treated with saline (control) or DF at doses of 150 and 400 μg/ml for 24 h. To isolate the RNA were used the RNeasy Mini Kit from Qiagen according the manufacture's instructions.
(§3) The 1% agarose gel electrophoresis, stained with Ethidium Bromide, was performed on all samples to check for presence of clear 28S and 18S ribosomal subunit bands. […]
(§4) In order to perform the Real Time PCR was used the SYBER Green PCR Master Mix Reagent (SYBER Green PCR--Bio-Rad). Direct detection of polymerase chain reaction (PCR) product was monitored by measuring the increase in fluorescence caused by the binding of SYBER Green to double-stranded DNA. […]
Real-Time PCR was performed on cDNAs prepared from U266 cells treated with saline (control) or DF at dose of 150 and 400 μg/ml. The experiments were performed in triplicate and the results are expressed as mRNA levels normalized by the housekeeping actin gene.
For orientation: In qPCR the cycle at which signal appears reflects the starting amount.

Experiment [2] has as its system Heparanase gene expression. Kind of experiment: Real-Time PCR of Heparanase gene expression in HMEC cells. Type of experiment: cell-based, human. The following applies: DF 150 μg/ml, 24 h, vs saline control, triplicate. The protocol:
as §1, §2, §3, §4
Real-Time PCR was performed on cDNAs prepared from HMEC cells treated with saline (control) or DF at dose of 150 μg/ml. The experiments were performed in triplicate and the results are expressed as mRNA levels normalized by the housekeeping actin gene.

For experiment [3], the target named is T1, Heparanase (Homo sapiens, UniProt Q9Y251).
T1 construct: The Heparanase activity was measured in U266 extracts (1×10^5 Cell/ml of extraction buffer) by a commercial Heparan Degrading Enzyme Kit; endogenous in cells; host or cells: U266 myeloma cells (cell extract)
T1 sequence (Q9Y251 158-543 limits assumed): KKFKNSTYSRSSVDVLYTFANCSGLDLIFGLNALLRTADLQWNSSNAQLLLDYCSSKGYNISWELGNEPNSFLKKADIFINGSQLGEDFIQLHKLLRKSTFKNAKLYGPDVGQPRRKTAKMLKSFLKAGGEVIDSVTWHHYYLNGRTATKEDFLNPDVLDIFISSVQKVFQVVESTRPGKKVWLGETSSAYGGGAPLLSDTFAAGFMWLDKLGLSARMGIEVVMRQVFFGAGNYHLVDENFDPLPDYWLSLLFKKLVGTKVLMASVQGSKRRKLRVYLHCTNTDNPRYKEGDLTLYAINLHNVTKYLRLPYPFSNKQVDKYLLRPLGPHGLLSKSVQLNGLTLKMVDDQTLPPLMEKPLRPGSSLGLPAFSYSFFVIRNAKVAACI
T1 sequence (Q9Y251 36-109 limits assumed): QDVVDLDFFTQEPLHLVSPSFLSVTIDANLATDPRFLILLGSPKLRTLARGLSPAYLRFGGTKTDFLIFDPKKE
Briefly: Heparanase activity assay (Heparan Degrading Enzyme Assay Kit) in U266 extracts. Conditions: U266 cells, DF 50, 100 and 150 μg/ml, 24 h, vs saline control, triplicate. Type of experiment: cell-based. On the procedure:
as §1
The Heparanase activity was measured in U266 extracts (1×10^5 Cell/ml of extraction buffer) by a commercial Heparan Degrading Enzyme Kit (Takara-bio Inc.) according to manufacturer's instruction. The U266 cells have been treated with saline (control) or DF at doses of 50, 100 and 150 μg/ml for 24 h.
Heparan Degrading Enzyme Assay Kit measure the activity of heparan degrading enzyme in cultured cells, utilizing the property that heparan-like molecules and bFGF (basic fibroblast growth factor) combine each other. CBD-FGF is a fusion protein of cell-binding domain of human fibronectin and human fibroblast growth factor (Takara-bio Inc.). […]
The activity of Heparanase were measured using the Heparanse Degrading Enzyme Assay kit on U266 cells treated with saline (control) or Defibrotide at dose of 50, 100 and 150 μg/ml. The experiments were performed in triplicate and the activity of Heparanase is shown with decrease of absorbance.

For defibrotide [DF], the “Effect on Heparanase gene expression (mRNA levels normalized by the housekeeping actin gene)” value was “acts on U266 myeloma cells line through altering the Heparanase gene expression; also recorded: down regulation of Heparanase gene” in experiment [1] and “acts on Microvascular endothelial cells through altering the Heparanase gene expression; also recorded: downregulation of Heparanase gene expression on HMEC cells” in experiment [2]. The “Effect on enzymatic activity of Heparanase (shown with decrease of absorbance)” value in experiment [3] is recorded as “interferes on the Heparanase activity in the myeloma cell line; also recorded: decrease of its enzymatic activity”.
